Test results published in publication PMC10114720.

Key:
[1] = neutral chemical: log K is the mean of log D over all measurements at the three pH values (D shown independent of pH, paired t-test); sd is the table's stddev. PDMS sheets cleaned by Soxhlet with ethyl acetate; batch shaking method with a mixture of all chemicals at several PDMS-mass to water-volume ratios and spiked levels; vials shaken on an orbital shaker at room temperature in the dark, sampled at two equilibration times; PDMS extracts and water quantified by LC-HRMS (Orbitrap); D from the slope of C_PDMS on C_w or their ratio; conditions: PDMS (polydimethylsiloxane silicone sheet); phosphate buffer at three target pH values (the paper's methods)
[2] = PDMS sheets cleaned by Soxhlet with ethyl acetate; batch shaking method with a mixture of all chemicals at several PDMS-mass to water-volume ratios and spiked levels; vials shaken on an orbital shaker at room temperature in the dark, sampled at two equilibration times; PDMS extracts and water quantified by LC-HRMS (Orbitrap); D from the slope of C_PDMS on C_w or their ratio; value is the mean over that pH's experiments (individual experiments in the SI's concentrations table), sd is the table's stdev; conditions: PDMS (polydimethylsiloxane silicone sheet), phosphate buffer at three target pH values (the paper's methods)
[3] = monoprotic acid or base: log K of the neutral species extrapolated from the linear regression of D on the neutral fraction (from pKa and pH; the paper's eq. for monoprotic IOCs), the slope giving K of the neutral species; replicates column holds the table's 95% confidence limits. PDMS sheets cleaned by Soxhlet with ethyl acetate; batch shaking method with a mixture of all chemicals at several PDMS-mass to water-volume ratios and spiked levels; vials shaken on an orbital shaker at room temperature in the dark, sampled at two equilibration times; PDMS extracts and water quantified by LC-HRMS (Orbitrap); D from the slope of C_PDMS on C_w or their ratio; conditions: PDMS (polydimethylsiloxane silicone sheet); phosphate buffer at three target pH values (the paper's methods)

log D PDMS/w (apparent distribution ratio at the stated pH) ([2]; pH 3) | log D PDMS/w (apparent distribution ratio at the stated pH) ([2]; pH 11.5) | Compound | log K PDMS/w (neutral species) [1] | log D PDMS/w (apparent distribution ratio at the stated pH) ([2]; pH 7.4) | log K PDMS/w (neutral species) [3]
3.24 log units; D and K as the pape | 3.066 log units; D and K as the pape | O=C(/C=C/C=C/c1ccc2c(c1)OCO2)N1CCCCC1 | 3.135 log units; D and K as the pape | 3.109 log units; D and K as the pape | 
-0.06167 log units; D and K as the pape | 0.01333 log units; D and K as the pape | CN(C)S(=O)(=O)c1ccc(N)cc1 | -0.02333 log units; D and K as the pape | -0.02167 log units; D and K as the pape | 
-0.2614 log units; D and K as the pape | -0.1629 log units; D and K as the pape | Cc1c(C=O)c(=O)n(-c2ccccc2)n1C | -0.2009 log units; D and K as the pape | -0.1813 log units; D and K as the pape | 
4.266 log units; D and K as the pape | 4.168 log units; D and K as the pape | CC(C)c1ccc2sc3ccccc3c(=O)c2c1 | 4.227 log units; D and K as the pape | 4.252 log units; D and K as the pape | 
2.047 log units; D and K as the pape | 2.025 log units; D and K as the pape | CC(C)(C#N)c1cc(Cn2cncn2)cc(C(C)(C)C#N)c1 | 2.022 log units; D and K as the pape | 1.994 log units; D and K as the pape | 

Further lines, the molecule ahead of its results:

Compound | log D PDMS/w (apparent distribution ratio at the stated pH) ([2]; pH 3) | log D PDMS/w (apparent distribution ratio at the stated pH) ([2]; pH 11.5) | log K PDMS/w (neutral species) [1] | log D PDMS/w (apparent distribution ratio at the stated pH) ([2]; pH 7.4) | log K PDMS/w (neutral species) [3]
CCN(CC)C(=O)c1cccc(C)c1 | 1.611 log units; D and K as the pape | 1.633 log units; D and K as the pape | 1.611 log units; D and K as the pape | 1.592 log units; D and K as the pape | 
CCCCCCCCCCCC(=O)N(CCO)CCO | 2.742 log units; D and K as the pape | 2.749 log units; D and K as the pape | 2.753 log units; D and K as the pape | 2.767 log units; D and K as the pape | 
N#CSCSc1nc2ccccc2s1 | 1.914 log units; D and K as the pape |  | 1.857 log units; D and K as the pape | 1.821 log units; D and K as the pape | 1.892 log units; D and K as the pape
O=C1NCCN1Cc1ccc(Cl)nc1 |  | 1.451 log units; D and K as the pape | 1.372 log units; D and K as the pape | 1.277 log units; D and K as the pape | 
O=S(=O)(c1ccc(Cl)cc1)c1ccc(Cl)cc1 | 2.579 log units; D and K as the pape | 2.517 log units; D and K as the pape | 2.563 log units; D and K as the pape | 2.592 log units; D and K as the pape | 
NC(=O)Nc1ccc(Cl)c(Cl)c1 | 0.5975 log units; D and K as the pape | 0.6515 log units; D and K as the pape | 0.6359 log units; D and K as the pape | 0.6543 log units; D and K as the pape | 
CC(C)(C)Nc1nc(N)nc(Cl)n1 | 1.314 log units; D and K as the pape | 1.309 log units; D and K as the pape | 1.296 log units; D and K as the pape | 1.264 log units; D and K as the pape | 
CCCCCCCCn1sccc1=O | 3.047 log units; D and K as the pape | 2.893 log units; D and K as the pape | 2.956 log units; D and K as the pape | 2.926 log units; D and K as the pape | 
N#Cc1nn(-c2c(Cl)cc(C(F)(F)F)cc2Cl)c(N)c1SC(F)(F)F | 2.477 log units; D and K as the pape | 2.375 log units; D and K as the pape | 2.436 log units; D and K as the pape | 2.459 log units; D and K as the pape | 
